The values that follow come from patent publication US10829496B2, “Thienopyridines and benzothiophenes useful as IRAK4 inhibitors” (BRISTOL-MYERS SQUIBB COMPANY, priority 2017, dated 2020).

Data set [1] in a line: Caco-2 Permeability Assay. Particulars: human, 3 μM compound, 2 hours at 37° C., direction not given. Type of data set: in vitro ADME. The protocol: Caco-2 Permeability Assay
Thirteen to 27 days prior to assay, Caco-2 cells were seeded onto collagen-coated polycarbonate filter membranes in 24-well transwell plates at a density of 1.45×10^5 cells/cm^2, approximately 4.8×10^4 cells per well. The cells were grown in a culture medium consisting of DMEM supplemented with 10% fetal bovine serum, 10 mM HEPES, 1% nonessential amino acids, 2 mM L-glutamine, 100 U/mL penicillin-G, and 100 μg/mL streptomycin. The culture medium was replaced every 3 days and the cells were maintained at 37° C. in a 95% relative humidity and 5% CO2 atmosphere. The cells were evaluated for tight junction formation just prior to assay. The test compound was solubilized to 10 mM in 100% DMSO and diluted to 3 μM in assay buffer. Permeability studies were initiated by adding 200 μL assay buffer plus/minus compound to the apical transwell compartment and 600 μL assay buffer plus/minus compound to the basolateral compartment of the 24-well transwell low-binding cluster plate. For apical-to-basolateral (A to B) permeability (absorptive direction), buffer containing compound was placed in the apical compartment (donorwells), while buffer alone was placed in the corresponding basolateral compartments (receiverwells). For basolateral-to-apical (B to A) permeability (secretive direction), buffer containing compound was placed in the basolateral compartment (donor wells), while buffer alone was placed in the corresponding apical compartments (receiver wells). Transwells were then incubated for 2 hours at 37° C. in a 95% relative humidity and 5% CO2 atmosphere with gentle agitation. Following incubation, 100 μL was removed from each apical and basolateral compartment and transferred to 96-well low binding plates that had been previously loaded with 100 μL/well of acetonitrile containing 250 nM propranolol, 250 nM diclofenac, and 500 nM tolbutamide as internal standards. The samples were subsequently analyzed by LC-MS/MS to determine concentrations of compound.
On the technique in general: Caco-2 cells form a polarised layer with tight junctions and transporters.

Data set [2] has as its target IRAK4 (Homo sapiens (Human), UniProt Q9NWZ3). The data set can be described thus: IRAK4 Inhibition Assay. The data set is classed as biochemical. To be noted: ATP 500 μM; IRAK4 0.6 nM; 60 min at room temperature. Here is the method:
The assays were performed in U-bottom 384-well plates. The final assay volume was 30 μL prepared from 15 μL additions of enzyme and substrates (fluoresceinated peptide and ATP) and test compounds in assay buffer (20 mM HEPES pH 7.2, 10 mM MgCl2, 0.015% Brij 35 and 4 mM DTT). The reaction was initiated by the combination of IRAK4 with substrates and test compounds. The reaction mixture was incubated at room temperature for 60 min. and terminated by adding 45 μL of 35 mM EDTA to each sample. The reaction mixture was analyzed on the Caliper LABCHIP® 3000 (Caliper, Hopkinton, Mass.) by electrophoretic separation of the fluorescent substrate and phosphorylated product. Inhibition data were calculated by comparison to no enzyme control reactions for 100% inhibition and vehicle-only reactions for 0% inhibition. The final concentrations of reagents in the assays are ATP, 500 μM; FL-IPTSPITTTYFFFKKK peptide 1.5 μM; IRAK4, 0.6 nM; and DMSO, 1.6%.

For data set [3], the system named is IL-6 levels in human whole blood stimulated with a TLR2 agonist. Description: IRAK4 Whole Blood Assay (TLR2 agonist lipoteichoic acid-stimulated IL-6). Particulars: 10 μg/mL lipoteichoic acid, 5 hours, IL-6 readout. Type of data set: cell-based. The protocol: Human whole blood containing the anti-coagulant ACD-A was plated in 384-well plate (25 μL/well) and incubated with compounds for 60 minutes at 37° C. in a 5% CO2 incubator. The blood was stimulated with a TLR2 agonist, 10 μg/mL final concentration of lipoteichoic acid (Invivogen, San Diego, Calif.) in 25 μL RPMI (Gibco) for 5 hours in a 5% CO2 incubator. At the end of the incubation, plates were centrifuged at 2300 rpm for 5 minutes. Supernatants were harvested and analyzed for IL-6 levels by Flow Cytometry beads assay (BD Biosciences, San Jose, Calif.).

By Papp is commonly meant the rate of passage across a membrane or cell layer, normalised by area and donor concentration. Broadly, the IC50 is the point on the concentration scale where inhibition reaches its midpoint. By EC50 is commonly meant the midpoint of the concentration-response curve. Read a low EC50 as a more potent agent.

Sequence of IRAK4 (Q9NWZ3 whole entry): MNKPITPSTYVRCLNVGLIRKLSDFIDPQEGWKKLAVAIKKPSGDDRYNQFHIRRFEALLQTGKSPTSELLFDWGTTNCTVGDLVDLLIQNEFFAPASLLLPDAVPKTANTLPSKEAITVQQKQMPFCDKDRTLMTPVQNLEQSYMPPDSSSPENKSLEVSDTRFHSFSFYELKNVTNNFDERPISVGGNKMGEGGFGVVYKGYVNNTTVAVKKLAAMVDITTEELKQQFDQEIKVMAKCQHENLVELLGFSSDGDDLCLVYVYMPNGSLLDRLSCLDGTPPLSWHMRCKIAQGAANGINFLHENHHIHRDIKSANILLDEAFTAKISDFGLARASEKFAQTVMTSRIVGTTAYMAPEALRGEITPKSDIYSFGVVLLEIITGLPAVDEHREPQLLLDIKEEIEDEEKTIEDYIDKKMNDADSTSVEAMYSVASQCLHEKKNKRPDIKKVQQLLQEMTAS

Turning to `CC[C@@H]1CC(=O)N[C@@H]1COc1c(C)sc2cc(C(N)=O)c(OC)nc12` [Example 19, 3-(((2S,3R)-3-ethyl-5-oxopyrrolidin-2-yl)methoxy)-5-methoxy-2-methylthieno[3,2-b]pyridine-6-carboxamide], the Papp at 2 h, 3 µM in data set [1] worked out at 225 nm/s. Also, the IC50 in data set [2] stood at 0.0106 µM. The molecule further yielded an EC50 in data set [3] of 3.3 µM.
With `CC[C@H]1[C@@H](COc2csc3cc(C(N)=O)c(OC)nc23)NC(=O)C1(F)F` [Example 1, 3-(((2S,3S)-3-Ethyl-4,4-difluoro-5-oxopyrrolidin-2-yl)methoxy)-5-methoxythieno[3,2-b]pyridine-6-carboxamide], in data set [1], the Papp at 2 h, 3 µM was 102 nm/s. In data set [2], the IC50 worked out at 0.0006 µM. In data set [3], this molecule had an EC50 of 0.058 µM.
In the case of `CC[C@@H]1[C@H](F)C(=O)N[C@@H]1COc1csc2cc(C(N)=O)c(OC(C)C)nc12` [Example 23, 3-(((2S,3S,4S)-3-ethyl-4-fluoro-5-oxopyrrolidin-2-yl)methoxy)-5-isopropoxythieno[3,2-b]pyridine-6-carboxamide], in data set [1], the Papp at 2 h, 3 µM stood at 184 nm/s. Further, the IC50 in data set [2] was 0.0014 µM. Besides, in data set [3], the EC50 amounted to 0.189 µM.
